In ChEMBL document CHEMBL5625164, “Design, synthesis, and evaluation of new anti-inflammatory natural products amide derivatives endowed with anti-blood cancer activity towards development of potential multifunctional agents against hematological cancers” (Eur J Med Chem, 2023):

Experiments:
[1] = Cytotoxicity against mouse RAW264.7 cells assessed as macrophage viability at 10 uM relative to control; type: toxicity, cell-based; details: read-out: Activity
BV-2 [2] = experiment: Anti-inflammatory activity against mouse BV-2 cells assessed as inhibition of LPS-induced NO production pretreated for 2 hrs followed stimulated with LPS for 22 hrs by Griess reaction assay; type: functional, cell-based
BV-2 [3] = experiment: Anti-inflammatory activity against mouse BV-2 cells assessed as inhibition of LPS-induced NO production at 10 uM pretreated for 2 hrs followed stimulated with LPS for 22 hrs by Griess reaction assay relative to control; type: functional; details: time 24 hrs
BV-2 [4] = experiment: Anti-inflammatory activity against mouse BV-2 cells assessed as inhibition of LPS-induced PGE2 production pretreated for 2 hrs followed stimulated with LPS for 22 hrs; type: functional, cell-based
BV-2 [5] = experiment: Anti-inflammatory activity against mouse BV-2 cells assessed as inhibition of LPS-induced PGE2 production pretreated for 2 hrs followed stimulated with LPS for 22 hrs at 10 uM relative to control; type: functional; details: time 24 hrs
BV-2 [6] = experiment: Anti-inflammatory activity against mouse BV-2 cells assessed as inhibition of LPS-induced TNFalpha production pretreated for 2 hrs followed stimulated with LPS for 22 hrs; type: functional, cell-based; details: time 24.0 hrs
BV-2 [7] = experiment: Anti-inflammatory activity against mouse BV-2 cells assessed as inhibition of LPS-induced TNFalpha production pretreated for 2 hrs followed stimulated with LPS for 22 hrs at 10 uM relative to control; type: functional; details: time 24 hrs
CCRF-CEM [8] = experiment: Anticancer activity against human CCRF-CEM cells assessed as growth inhibition at 10 uM measured after 48 hrs by SRB assay relative to control; type: functional; details: read-out: GI
K562 [9] = experiment: Anticancer activity against human K562 cells assessed as growth inhibition at 10 uM measured after 48 hrs by SRB assay relative to control; type: functional; details: read-out: GI
MOLT-4 [10] = experiment: Anticancer activity against human MOLT-4 cells assessed as growth inhibition at 10 uM measured after 48 hrs by SRB assay relative to control; type: functional; details: read-out: GI
RPMI-8226 [11] = experiment: Anticancer activity against human RPMI-8226 cells assessed as growth inhibition at 10 uM measured after 48 hrs by SRB assay relative to control; type: functional; details: read-out: GI
SR [12] = experiment: Anticancer activity against human SR cells assessed as growth inhibition at 10 uM measured after 48 hrs by SRB assay relative to control; type: functional; details: read-out: GI
CCRF-CEM [13] = experiment: Anticancer activity against human CCRF-CEM cells assessed as growth inhibition measured after 48 hrs by SRB assay relative to control; type: functional
HL-60 [14] = experiment: Anticancer activity against human HL-60 cells assessed as growth inhibition measured after 48 hrs by SRB assay relative to control; type: functional
K562 [15] = experiment: Anticancer activity against human K562 cells assessed as growth inhibition measured after 48 hrs by SRB assay relative to control; type: functional
MOLT-4 [16] = experiment: Anticancer activity against human MOLT-4 cells assessed as growth inhibition measured after 48 hrs by SRB assay relative to control; type: functional
RPMI-8226 [17] = experiment: Anticancer activity against human RPMI-8226 cells assessed as growth inhibition measured after 48 hrs by SRB assay relative to control; type: functional
SR [18] = experiment: Anticancer activity against human SR cells assessed as growth inhibition measured after 48 hrs by SRB assay relative to control; type: functional
HL-60 [19] = experiment: Induction of cell cycle arrest in human HL-60 cells assessed as accumulation of cells at SubG1 phase at 10 uM measured after 24 hrs by propidium iodide staining based flow cytometry (reference value: 5.89%); type: functional
HL-60 [20] = experiment: Induction of cell cycle arrest in human HL-60 cells assessed as accumulation of cells at G0/G1 phase at 10 uM measured after 24 hrs by propidium iodide staining based flow cytometry (reference value: 66.61%); type: functional
HL-60 [21] = experiment: Induction of cell cycle arrest in human HL-60 cells assessed as accumulation of cells at S phase at 10 uM measured after 24 hrs by propidium iodide staining based flow cytometry (reference value: 13.85%); type: functional
HL-60 [22] = experiment: Induction of cell cycle arrest in human HL-60 cells assessed as accumulation of cells at G2/M phase at 10 uM measured after 24 hrs by propidium iodide staining based flow cytometry (reference value: 9.01%); type: functional
HL-60 [23] = experiment: Induction of cell cycle arrest in human HL-60 cells assessed as accumulation of cells at SubG1 phase at 25 uM measured after 24 hrs by propidium iodide staining based flow cytometry (reference value: 5.89%); type: functional
HL-60 [24] = experiment: Induction of cell cycle arrest in human HL-60 cells assessed as accumulation of cells at G0/G1 phase at 25 uM measured after 24 hrs by propidium iodide staining based flow cytometry (reference value: 66.61%); type: functional
HL-60 [25] = experiment: Induction of cell cycle arrest in human HL-60 cells assessed as accumulation of cells at S phase at 25 uM measured after 24 hrs by propidium iodide staining based flow cytometry (reference value: 13.85%); type: functional
HL-60 [26] = experiment: Induction of cell cycle arrest in human HL-60 cells assessed as accumulation of cells at G2/M phase at 25 uM measured after 24 hrs by propidium iodide staining based flow cytometry (reference value: 9.01%); type: functional
HL-60 [27] = experiment: Induction of cell cycle arrest in human HL-60 cells assessed as accumulation of cells at SubG1 phase at 50 uM measured after 24 hrs by propidium iodide staining based flow cytometry (reference value: 5.89%); type: functional
HL-60 [28] = experiment: Induction of cell cycle arrest in human HL-60 cells assessed as accumulation of cells at G0/G1 phase at 50 uM measured after 24 hrs by propidium iodide staining based flow cytometry (reference value: 66.61%); type: functional
HL-60 [29] = experiment: Induction of cell cycle arrest in human HL-60 cells assessed as accumulation of cells at S phase at 50 uM measured after 24 hrs by propidium iodide staining based flow cytometry (reference value: 13.85%); type: functional
HL-60 [30] = experiment: Induction of cell cycle arrest in human HL-60 cells assessed as accumulation of cells at G2/M phase at 50 uM measured after 24 hrs by propidium iodide staining based flow cytometry (reference value: 9.01%); type: functional
HL-60 [31] = experiment: Induction of cell cycle arrest in human HL-60 cells assessed as accumulation of cells at SubG1 phase at 10 uM measured after 48 hrs by propidium iodide staining based flow cytometry (reference value: 4.25%); type: functional
HL-60 [32] = experiment: Induction of cell cycle arrest in human HL-60 cells assessed as accumulation of cells at G0/G1 phase at 10 uM measured after 48 hrs by propidium iodide staining based flow cytometry (reference value: 60.03%); type: functional
HL-60 [33] = experiment: Induction of cell cycle arrest in human HL-60 cells assessed as accumulation of cells at S phase at 10 uM measured after 48 hrs by propidium iodide staining based flow cytometry (reference value: 7.16%); type: functional
HL-60 [34] = experiment: Induction of cell cycle arrest in human HL-60 cells assessed as accumulation of cells at G2/M phase at 10 uM measured after 48 hrs by propidium iodide staining based flow cytometry (reference value: 16.61%); type: functional
HL-60 [35] = experiment: Induction of cell cycle arrest in human HL-60 cells assessed as accumulation of cells at SubG1 phase at 25 uM measured after 48 hrs by propidium iodide staining based flow cytometry (reference value: 4.25%); type: functional
HL-60 [36] = experiment: Induction of cell cycle arrest in human HL-60 cells assessed as accumulation of cells at G0/G1 phase at 25 uM measured after 48 hrs by propidium iodide staining based flow cytometry (reference value: 60.03%); type: functional
HL-60 [37] = experiment: Induction of cell cycle arrest in human HL-60 cells assessed as accumulation of cells at S phase at 25 uM measured after 48 hrs by propidium iodide staining based flow cytometry (reference value: 7.16%); type: functional
HL-60 [38] = experiment: Induction of cell cycle arrest in human HL-60 cells assessed as accumulation of cells at G2/M phase at 25 uM measured after 48 hrs by propidium iodide staining based flow cytometry (reference value: 16.61%); type: functional
HL-60 [39] = experiment: Induction of cell cycle arrest in human HL-60 cells assessed as accumulation of cells at SubG1 phase at 50 uM measured after 48 hrs by propidium iodide staining based flow cytometry (reference value: 4.25%); type: functional
HL-60 [40] = experiment: Induction of cell cycle arrest in human HL-60 cells assessed as accumulation of cells at G0/G1 phase at 50 uM measured after 48 hrs by propidium iodide staining based flow cytometry (reference value: 60.03%); type: functional
HL-60 [41] = experiment: Induction of cell cycle arrest in human HL-60 cells assessed as accumulation of cells at S phase at 50 uM measured after 48 hrs by propidium iodide staining based flow cytometry (reference value: 7.16%); type: functional
HL-60 [42] = experiment: Induction of cell cycle arrest in human HL-60 cells assessed as accumulation of cells at G2/M phase at 50 uM measured after 48 hrs by propidium iodide staining based flow cytometry (reference value: 16.61%); type: functional
HL-60 [43] = experiment: Induction of apoptosis in human HL-60 cells assessed as early apoptotic cells measured after 24 hrs by annexin V/propidium iodide staining based FACS assay; type: functional, cell-based; details: dose 10-50 µM
HL-60 [44] = experiment: Induction of apoptosis in human HL-60 cells assessed as total apoptotic cells measured after 24 hrs by annexin V/propidium iodide staining based FACS assay; type: functional, cell-based; details: dose 10-50 µM

COc1cc2c(c(OC)c1OC)C(=O)CC(c1cccc(NC(=O)c3ccc(Br)cc3)c1)O2 (racemic)
viability at 10 µM [1]: 106%
IC50 (BV-2 [2]): 14700 nM
inhibition at 10 µM (BV-2 [3]): 45.2%
IC50 (BV-2 [4]): 9100 nM
inhibition at 10 µM (BV-2 [5]): 61.1%
Activity (BV-2 [6]): Dose-Dependent Effect
inhibition at 10 µM (BV-2 [7]): 50%
inhibition of growth at 10 µM (CCRF-CEM [8]): 97.1%
inhibition of growth at 10 µM (K562 [9]): 94.1%
inhibition of growth at 10 µM (MOLT-4 [10]): 112%
inhibition of growth at 10 µM (RPMI-8226 [11]): 105%
inhibition of growth at 10 µM (SR [12]): 96.1%
GI50 (CCRF-CEM [13]): 2620 nM
GI50 (HL-60 [14]): 1640 nM
GI50 (K562 [15]): 1420 nM
GI50 (MOLT-4 [16]): 1630 nM
GI50 (RPMI-8226 [17]): 1580 nM
GI50 (SR [18]): 1340 nM
Activity (HL-60 [19]): 6.15%
Activity (HL-60 [20]): 51.19%
Activity (HL-60 [21]): 19.25%
Activity (HL-60 [22]): 5.69%
Activity (HL-60 [23]): 43.13%
Activity (HL-60 [24]): 2.08%
Activity (HL-60 [25]): 27.79%
Activity (HL-60 [26]): 2.22%
Activity (HL-60 [27]): 70.09%
Activity (HL-60 [28]): 4.82%
Activity (HL-60 [29]): 5.77%
Activity (HL-60 [30]): 1.8%
Activity (HL-60 [31]): 8.99%
Activity (HL-60 [32]): 33.83%
Activity (HL-60 [33]): 12.39%
Activity (HL-60 [34]): 26.61%
Activity (HL-60 [35]): 74.54%
Activity (HL-60 [36]): 5.89%
Activity (HL-60 [37]): 1.33%
Activity (HL-60 [38]): 10.01%
Activity (HL-60 [39]): 90.39%
Activity (HL-60 [40]): 3.96%
Activity (HL-60 [41]): 1.21%
Activity (HL-60 [42]): 1.61%
Activity (HL-60 [43]): Dose-Dependent Effect
Activity (HL-60 [44]): Dose-Dependent Effect
